Test results: article PMC6821791, “Phase I Trial of Pyragrel, a Novel Thromboxane Synthetase Inhibitor, to Evaluate the Safety, Tolerability, and Pharmacokinetics in Healthy Volunteers” (Frontiers in Pharmacology, 2019)

Experiments:
[1] = Acute toxicity study in mice; assay type: in vivo
[2] = Part II saline-volume-changed study, plasma pharmacokinetics; assay type: in vivo, human; conditions: single-dose infusion of 240 mg pyragrel diluted in 250 ml saline, n=4
Method: (§1) Pyragrel administration regimens are as follows: In the single-escalating-dose study (Part I), a total of 52 subjects are enrolled to receive one of three treatments (pyragrel, ozagrel, or placebo, diluted in 500 Ml normal saline) as a 3-h i.v. infusion. Six dose levels of pyragrel (30, 60,120, 180, 240, 300 mg) were intravenously infused to healthy subjects. Of the 12 subjects each at the first three dose groups (30, 60, and 120 mg), 8 received pyragrel, 2 received ozagrel (80 mg), and 2 received placebo. Eight subjects were assigned as 4/2/2 for pyragrel, ozagrel, and placebo at the 180 mg level. Only four subjects were enrolled at the 240- and 300-mg group each; all received pyragrel. […] In the saline-volume-changed study (Part II), the safety and pharmacokinetics of pyragrel were assessed by decreasing the volume of dilution saline. Four subjects received a single 3 h infusion of pyragrel 240 mg diluted in 250 ml saline instead of the 500 ml used in Part I. Blood samples were collected at multiple time points before and after the initiation of the infusion in Part I and Part II; 15 blood samples were predetermined as follows: before drug administration (time 0), 0.5, 1, 2, 3 (4 samples collected during infusion), 3.25, 3.5, 4, 5, 7, 9, 11, 15, 24, and 48 h (10 samples collected post infusion) after the initiation of the infusion. In the multiple-dose study (Part III), 12 subjects received a single 3 h infusion of 180 mg pyragrel (diluted in 250 ml saline) on Day 1 and Day 6 and twice 3 h infusion of 180 mg pyragrel from Day 2 to 5; 14 blood samples were collected on Day 1 and Day 6 before drug administration (0 h), 0.5, 1, 2, 3, 3.25, 3.5, 4, 5, 7, 9, 11, 15, 24 h after the initiation of the infusion; moreover, 5 ml cubital vein blood was collected each time right before pyragrel infusion on Day 2 to Day 5. In the 3×3 crossover study (Part IV), 12 subjects were randomized to receive each of the three dosing groups (60, 120, or 240 mg) of pyragrel (diluted with 250 ml saline, 3 h infusion) per period, with a 7-day washout period between doses. Sixteen blood samples were collected as follows: before drug administration (0 h), 0.17, 0.35, 0.5, 1, 2, 3, 3.25, 3.5, 4, 5, 7, 9, 11, 15, and 24 h after the initiation of the infusion at each period. In the prolonged infusion study (Part V), four subjects received continuous 24 h infusion of pyragrel 360 mg (diluted in 600 ml saline); 19 blood samples were collected as follows: before drug administration (0 h), 0.25, 0.5, 1, 2, 4, 8, 12, 16, 20 (nine samples collected during administration), 24.25, 24.5, 25, 26, 28, 30, 32, 36, and 48 h after the initiation of the infusion (details shown in Figure 1 ). In all five cohorts, 5 ml of cubital vein blood was collected with a sodium heparin anticoagulant tube and centrifuged at 3000 r·min^-1. Each plasma sample was divided into two aliquots and stored at −20°C until further bioanalysis. […] Briefly, 10 µl of the extract drug from […] was injected onto a Zorbax EcLipse XDB C18 column (2.1 mm × 150 mm, 5 μm) (Agilent, USA) using isocratic elution with a mobile phase composed of methanol, water, and formic acid (65:35:0.1, v/v/v). Determination of the analytes was achieved by tandem-mass spectrometry with positive electrospray ionization.
(§2) Pharmacokinetic parameters were calculated using the noncompartmental model (NCA module), WinNonlin 6.1 (Pharsight Corporation, Mountain View, CA, USA). Statistical analysis was performed with SPSS 18. The actual dosing and sampling times were utilized in the analysis. Pharmacokinetic parameters were summarized by dose regimens using descriptive statistics, including n, mean, and the coefficient of variation (CV). For Tmax, only n, min, median, and max were reported.

[3] = Part I single-ascending-dose plasma pharmacokinetics (HPLC-MS/MS, noncompartmental); assay type: in vivo, human; conditions: for Pharmacokinetic process over the dose range: 30–300 mg dose range
Method: as §1, §2

[4] = Part I, metabolite in plasma after single 3 h i.v. infusion of pyragrel 30 mg, n=8, mean ± SD
[5] = Part I, metabolite in plasma after single 3 h i.v. infusion of pyragrel 60 mg, n=8, mean ± SD
[6] = Part I, metabolite in plasma after single 3 h i.v. infusion of pyragrel 120 mg, n=8, mean ± SD
[7] = Part I, metabolite in plasma after single 3 h i.v. infusion of pyragrel 180 mg, n=4, mean ± SD
[8] = Part I, metabolite in plasma after single 3 h i.v. infusion of pyragrel 240 mg, n=4, mean ± SD
[9] = Part I, metabolite in plasma after single 3 h i.v. infusion of pyragrel 300 mg, n=4, mean ± SD
[10] = Part I, single 3-h i.v. infusion of pyragrel 30 mg, plasma, n=8, mean ± SD
[11] = Part I, single 3-h i.v. infusion of pyragrel 60 mg, plasma, n=8, mean ± SD
[12] = Part I, single 3-h i.v. infusion of pyragrel 120 mg, plasma, n=8, mean ± SD
[13] = Part I, single 3-h i.v. infusion of pyragrel 180 mg, plasma, n=4, mean ± SD
[14] = Part I, single 3-h i.v. infusion of pyragrel 240 mg, plasma, n=4, mean ± SD
[15] = Part I, single 3-h i.v. infusion of pyragrel 300 mg, plasma, n=4, mean ± SD

COc1cc(CCC(=O)O)ccc1OCc1nc(C)c(C)nc1C [BBS]
LD50 [1]: > 929.7 mg/kg | AUCINF [2]: 10315.00 ± 5472.87 ng·h/mL | AUClast [2]: 10085.90 ± 5357.26 ng·h/mL | Cl [2]: 36.06 ± 33.86 L/h | Cmax [2]: 2066.22 ± 977.65 ng/mL | MRTINF [2]: 4.13 ± 0.70 h | MRTlast [2]: 3.50 ± 0.74 h | Tmax [2]: 3.19 ± 0.24 h | Vz [2]: 372.66 ± 424.67 L | t1/2 [2]: 6.31 ± 1.38 h | λz [2]: 0.11 ± 0.03 h⁻¹ | Pharmacokinetic process over the dose range [3]: linear | AUCINF [3, 4]: 1016.64 ± 206.08 µg·h/L | AUClast [3, 4]: 1006.02 ± 209.31 µg·h/L | Cl [3, 4]: 30.60 ± 6.23 L/h | Cmax [3, 4]: 216.34 ± 48.23 µg/L | Tmax [3, 4]: 3.22 ± 0.36 h | Vz [3, 4]: 252.46 ± 113.75 L | t1/2 [3, 4]: 5.90 ± 2.84 h | AUCINF [3, 5]: 1815.58 ± 430.74 µg·h/L | AUClast [3, 5]: 1802.57 ± 421.18 µg·h/L | Cl [3, 5]: 34.63 ± 7.86 L/h | Cmax [3, 5]: 389.37 ± 90.87 µg/L | Tmax [3, 5]: 3.25 ± 0.13 h | Vz [3, 5]: 377.35 ± 68.16 L | t1/2 [3, 5]: 7.94 ± 2.48 h | AUCINF [3, 6]: 3566.52 ± 1518.01 µg·h/L | AUClast [3, 6]: 3553.23 ± 1512.83 µg·h/L | Cl [3, 6]: 37.91 ± 12.00 L/h | Cmax [3, 6]: 753.36 ± 287.7 µg/L | Tmax [3, 6]: 3.31 ± 0.18 h | Vz [3, 6]: 369.08 ± 168.49 L | t1/2 [3, 6]: 6.89 ± 2.29 h | AUCINF [3, 7]: 6563.91 ± 1179.31 µg·h/L | AUClast [3, 7]: 6542.7 ± 1174.8 µg·h/L | Cl [3, 7]: 28.22 ± 5.92 L/h | Cmax [3, 7]: 1490.69 ± 358.43 µg/L | Tmax [3, 7]: 3.31 ± 0.24 h | Vz [3, 7]: 301.81 ± 76.25 L | t1/2 [3, 7]: 7.41 ± 0.97 h | AUCINF [3, 8]: 8910.06 ± 3388.83 µg·h/L | AUClast [3, 8]: 8843.82 ± 3366.35 µg·h/L | Cl [3, 8]: 29.59 ± 9.55 L/h | Cmax [3, 8]: 1878.22 ± 681.05 µg/L | Tmax [3, 8]: 3.25 ± 0.20 h | Vz [3, 8]: 374.58 ± 119.99 L | t1/2 [3, 8]: 8.81 ± 0.46 h | AUCINF [3, 9]: 10549.78 ± 3061.74 µg·h/L | AUClast [3, 9]: 10466.78 ± 3028.35 µg·h/L | Cl [3, 9]: 30.84 ± 11.23 L/h | Cmax [3, 9]: 2139.28 ± 589.06 µg/L | Tmax [3, 9]: 3.19 ± 0.13 h | Vz [3, 9]: 345.29 ± 120.76 L | t1/2 [3, 9]: 7.85 ± 1.92 h

COc1cc(C=CC(=O)[O-])ccc1OCc1nc(C)c(C)nc1C.[Na+] [Pyragrel, sodium pyragrel]
LD50 [1]: 929.7 mg/kg | AUCINF [2]: 9638.78 ± 1487.08 ng·h/mL | AUClast [2]: 9600.11 ± 1446.10 ng·h/mL | Cl [2]: 25.38 ± 4.18 L/h | Cmax [2]: 3360.73 ± 622.63 ng/mL | MRTINF [2]: 1.02 ± 0.33 h | MRTlast [2]: 0.90 ± 0.16 h | Tmax [2]: 3.00 ± 0.00 h | Vz [2]: 221.12 ± 75.68 L | t1/2 [2]: 6.19 ± 2.63 h | λz [2]: 0.13 ± 0.04 h⁻¹ | Pharmacokinetic process over the dose range [3]: linear | Tmax ([3]; Part I, across all six dose groups (30-300 mg), 3 h infusion): about 3 h | Plasma concentration remaining, fraction of Cmax ([3]; Part I, at 4 h after initiation of the 3 h infusion): 1/20 | AUCINF [3, 10]: 1,051.0 ± 185.8 h*µg·L^-1 | AUClast [3, 10]: 1,047.5 ± 182.7 h*µg·L^-1 | Cl [3, 10]: 29.26 ± 4.69 L/h | Tmax [3, 10]: 2.75 ± 0.46 h | Vz [3, 10]: 96.16 ± 31.87 L | t1/2 [3, 10]: 2.39 ± 1.03 h | AUCINF [3, 11]: 2,009.4 ± 235.97 h*µg·L^-1 | AUClast [3, 11]: 2,003.7 ± 235.9 h*µg·L^-1 | Cl [3, 11]: 30.23 ± 3.58 L/h | Cmax [3, 11]: 711.8 ± 100.2 µg/L | Tmax [3, 11]: 2.88 ± 0.35 h | Vz [3, 11]: 203.0 ± 81.47 L | t1/2 [3, 11]: 4.62 ± 1.69 h | AUCINF [3, 12]: 4,300.5 ± 807.5 h*µg·L^-1 | AUClast [3, 12]: 4,287.2 ± 812.7 h*µg·L^-1 | Cl [3, 12]: 28.76 ± 5.26 L/h | Cmax [3, 12]: 1,435.6 ± 319.5 µg·L^-1 | Tmax [3, 12]: 2.88 ± 0.35 h | Vz [3, 12]: 278.0 ± 162.5 L | t1/2 [3, 12]: 6.64 ± 3.53 h | AUCINF [3, 13]: 7,390.5 ± 414.7 h*µg·L^-1 | AUClast [3, 13]: 7,376.5 ± 413.0 h*µg·L^-1 | Cl [3, 13]: 24.41 ± 1.41 L/h | Cmax [3, 13]: 2,622.5 ± 439.9 µg·L^-1 | Tmax [3, 13]: 3.00 ± 0.00 h | Vz [3, 13]: 334.4 ± 110.8 L | t1/2 [3, 13]: 9.64 ± 3.58 h | AUCINF [3, 14]: 9,224.3 ± 2,716.3 h*µg·L^-1 | AUClast [3, 14]: 9,194.7 ± 2,703.5 h*µg·L^-1 | Cl [3, 14]: 27.50 ± 6.80 L/h | Cmax [3, 14]: 3,144.2 ± 931.2 µg·L^-1 | Tmax [3, 14]: 2.75 ± 0.50 h | Vz [3, 14]: 573.6 ± 180.3 L | t1/2 [3, 14]: 14.24 ± 1.66 h | AUCINF [3, 15]: 9,315.3 ± 1,219.1 h*µg·L^-1 | AUClast [3, 15]: 9,301.4 ± 1,215.2 h*µg·L^-1 | Cl [3, 15]: 32.62 ± 4.29 L/h | Cmax [3, 15]: 3,011.7 ± 303.2 µg·L^-1 | Tmax [3, 15]: 2.25 ± 0.50 h | Vz [3, 15]: 454.6 ± 191.4 L | t1/2 [3, 15]: 9.88 ± 4.26 h
